{"source": "patent US7473697B2", "about": "“2-Oxo-piperidinyl- and 2-oxo-azepanyl alkanoic acid derivatives for the treatment of epilepsy and other neurological disorders” (UCB S.A., priority 2001, dated 2009)", "key": {"[1]": {"test_system": "sound-susceptible mice (audiogenic seizures, clonic convulsions)", "experiment": "Audiogenic seizure test in sound-susceptible mice", "assay_type": "in vivo", "conditions": "for ED50: Mus musculus", "text": "The objective of this test is to evaluate the anticonvulsant potency of a compound in sound-susceptible mice, a genetic animal model with reflex seizures. In this model of primary generalised epilepsy, seizures are evoked without electrical or chemical stimulation and the seizure types are, at least in part, similar in their clinical phenomenology to seizures occurring in man (Löscher W. & Schmidt D., Epilepsy Res. (1998), 2, 145-181: Buchhalter J. R , Epilepsia (1993), 34, S31-S41).\nMale or female genetically sound-sensitive mice (14-28 g; N=10), derived from a DBA strain originally selected by Dr. Lehmann of the Laboratory of Acoustic Physiology (Paris) and bred in the UCB Pharma Sector husbandry unit since 1978, were used. The experimental design consisted of several groups, one group receiving the vehicle control and the other groups different doses of the test-compound. The compounds were administered intraperitoneally 60 minutes before the induction of audiogenic seizures.\nFor testing, the animals were placed in small cages, one mouse per cage, in a sound-attenuated chamber. After a period of orientation of 30 seconds, the acoustic stimulus (90 dB, 10-20 kHz) was delivered for 30 seconds via loudspeakers positioned above each cage. During this interval, the mice were observed and the presence of the 3 phases of the seizure activity namely wild running, clonic and tonic convulsions, was recorded. The proportion of mice protected against wild running, clonic and tonic convulsions, respectively, was calculated.\nFor active compounds, an ED50 value, i.e. the dose (expressed in moles per kg of test animal) producing 50% protection relative to the control group, together with 95% confidence limits, was calculated using a Probit Analysis (SAS/STAT® Software, version 6.09, PROBIT procedure) of the proportions of protected mice for each of the 3 phases of the seizure activity.\nIn tables I-A and I-B the ED50 value (=AUD CC) for the inhibition of Clonic Convulsions in the Audiogenic seizure test are given. This test is a good animal model for the screening of anticonvulsant and/or antiepileptic compounds."}, "[2]": {"target": "T1, Levetiracetam Binding Site (LBS) (Rattus norvegicus, UniProt Q02563)", "T1 construct": "from tissue; host or cells: rat cerebral cortex crude membranes (male Sprague-Dawley)", "T1 sequence (Q02563 whole entry)": "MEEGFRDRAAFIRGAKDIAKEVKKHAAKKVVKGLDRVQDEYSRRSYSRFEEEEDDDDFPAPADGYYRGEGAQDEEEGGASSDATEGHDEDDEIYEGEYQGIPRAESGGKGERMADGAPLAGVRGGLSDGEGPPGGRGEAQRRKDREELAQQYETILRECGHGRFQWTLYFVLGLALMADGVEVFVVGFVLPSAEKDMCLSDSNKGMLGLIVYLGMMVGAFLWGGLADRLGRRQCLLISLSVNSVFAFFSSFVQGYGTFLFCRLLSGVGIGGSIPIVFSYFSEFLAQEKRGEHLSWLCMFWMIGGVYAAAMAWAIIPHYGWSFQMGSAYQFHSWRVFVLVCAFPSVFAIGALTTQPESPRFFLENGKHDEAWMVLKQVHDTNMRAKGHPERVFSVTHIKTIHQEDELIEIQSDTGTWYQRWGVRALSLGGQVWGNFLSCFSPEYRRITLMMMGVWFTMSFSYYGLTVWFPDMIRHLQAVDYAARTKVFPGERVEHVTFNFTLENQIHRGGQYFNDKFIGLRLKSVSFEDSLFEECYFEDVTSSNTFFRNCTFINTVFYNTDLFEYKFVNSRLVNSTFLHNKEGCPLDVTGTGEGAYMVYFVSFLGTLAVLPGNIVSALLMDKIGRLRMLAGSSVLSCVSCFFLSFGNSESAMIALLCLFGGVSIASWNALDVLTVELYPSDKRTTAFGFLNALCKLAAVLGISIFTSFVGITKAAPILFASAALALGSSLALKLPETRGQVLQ", "experiment": "Competitive binding to levetiracetam binding site (LBS), radioligand [3H]-2-[4-(3-azidophenyl)-2-oxo-1-pyrrolidinyl]butanamide, cerebral cortex membranes", "method": "The inhibition constant (Ki) of a compound is determined in competitive binding experiments by measuring the binding of a single concentration of a radioactive ligand at equilibrium with various concentrations of the unlabeled test substance. The concentration of the test substance inhibiting 50% of the specific binding of the radioligand is called the IC50. The equilibrium dissociation constant Ki is proportional to the IC50 and is calculated using the equation of Cheng and Prusoff (Cheng Y. et al., Biochem. Pharmacol. (1972), 22, 3099-3108).\nThe concentration range usually encompasses 6 log units with variable steps (0.3 to 1 log). Assays are performed in mono- or duplicate, each Ki determination is performed on two different samples of test substance. Cerebral cortex from 200-250 g male Sprague-Dawley rats were homogenised using a Potter S homogeniser (10 strokes at 1,000 rpm; Braun, Germany) in 20 mmol/l Tris-HCl (pH 7.4), 250 mmol/l sucrose (buffer A); all operations were performed at 4° C. The homogenate was centrifuged at 30,000 g for 15 min. The crude membrane pellet obtained was resuspended in 50 mmol/1 Tris-HCl (pH 7.4), (buffer B) and incubated 15 min at 37° C., centrifuged at 30,000 g for 15 min and washed twice with the same buffer. The final pellet was resuspended in buffer A at a protein concentration ranging from 15 to 25 mg/ml and stored in liquid nitrogen.\nMembranes (150-200 μg of protein/assay) are incubated at 4° C. for 120 min in 0.5 ml of a 50 mmol/l Tris-HCl buffer (pH 7.4) containing 2 mmol/l MgCl2, 1 to 2.10^−9 mol/l of [^3H]-2-[4-(3-azidophenyl)-2-oxo-1-pyrrolidinyl]butanamide (levetiracetam analog, a tritiated radioligand currently used for the labelling of LBS), and increasing concentrations of the test substance. The non specific binding (NSB) is defined as the residual binding observed in the presence of a concentration of reference substance (e.g. 10^−3 mol/l levetiracetam) that binds essentially all the receptors. Membrane-bound and free radioligands are separated by rapid filtration through glass fiber filters (equivalent to Whatman GF/C or GF/B; VEL, Belgium) pre-soaked in 0.1% polyethyleneimine and 10^−3 mol/l levetiracetam to reduce non specific binding. Samples and filters are rinsed by at least 6 ml of 50 mmol/l Tris-HCl (pH 7.4) buffer. […] The radioactivity trapped onto the filters is counted by liquid scintillation in a β-counter (Tri-Carb 1900 or TopCount 9206, Camberra Packard, Belgium, or any other equivalent counter). Data analysis is perfomed by a computerized non linear curve fitting method using a set of equations describing several binding models assuming populations of independent non-interacting receptors which obey to the law of mass."}, "[3]": {"conditions": "6-ring compounds, intraperitoneally 60 minutes before induction, inactive = inactive at 1.0E−03"}, "[4]": {"conditions": "6-ring compounds, rat cerebral cortex membranes"}, "[5]": {"conditions": "7-ring compounds, intraperitoneally 60 minutes before induction, inactive = inactive at 1.0E−03"}, "[6]": {"conditions": "7-ring compounds, rat cerebral cortex membranes"}}, "note": "Like-named read-outs stand apart in the source and are kept apart here.", "data": [{"smiles": "CC[C@H](C(N)=O)N1CCC(CI)CC1=O", "note": "(stereo partly drawn) [Compound 14, (2R)-2-[4-(iodomethyl)-2-oxo-1-piperidinyl]butanamide]", "values": [{"measurement": "AUD CC (ED50 for inhibition of Clonic Convulsions in the Audiogenic seizure test)", "setting": "[1]; [3]", "result": "Inactive"}]}, {"smiles": "CC[C@@H](C(N)=O)N1CCC(CI)CC1=O", "note": "(stereo partly drawn) [Compound 15, (2S)-2-[4-(iodomethyl)-2-oxo-1-piperidinyl]butanamide]", "values": [{"measurement": "AUD CC (ED50 for inhibition of Clonic Convulsions in the Audiogenic seizure test)", "setting": "[1]; [3]", "result": 0.00025, "unit": "mol/kg"}, {"measurement": "PKi", "setting": "[2]; [4]", "result": "+++ (+++ = 6.5 ≦ pKi < 7.5)"}]}, {"smiles": "CCC(C(N)=O)N1CCC(CI)CCC1=O", "note": "(single isomer, unassigned) [Compound 20, 2-[5-(iodomethyl)-2-oxo-1-azepanyl]butanamide]", "values": [{"measurement": "AUD CC (ED50 for inhibition of Clonic Convulsions in the Audiogenic seizure test)", "setting": "[1]; [5]", "result": 0.00056, "unit": "mol/kg"}, {"measurement": "Ki", "setting": "[2]; [6]", "result": "0.316 to 3.16", "unit": "µM"}]}, {"smiles": "CC[C@@H](C(N)=O)N1CC(CI)CCC1=O", "note": "(stereo partly drawn) [Compound 6, (2S)-2-[5-(iodomethyl)-2-oxo-1-piperidinyl]butanamide]", "values": [{"measurement": "AUD CC (ED50 for inhibition of Clonic Convulsions in the Audiogenic seizure test)", "setting": "[1]; [3]", "result": 0.0002, "unit": "mol/kg"}, {"measurement": "Ki", "setting": "[2]; [4]", "result": "0.0316 to 0.316", "unit": "µM"}]}, {"smiles": "CCC(C(N)=O)N1CC(c2ccccc2)CCC1=O", "note": "(stereo not shown) [Compound 12, 2-(2-oxo-5-phenyl-1-piperidinyl)butanamide]", "values": [{"measurement": "AUD CC (ED50 for inhibition of Clonic Convulsions in the Audiogenic seizure test)", "setting": "[1]; ip", "result": "Inactive"}]}, {"smiles": "CCC(C(N)=O)N1CCC(CI)CCC1=O", "note": "(single isomer, unassigned) [Compound 18, 2-[5-(iodomethyl)-2-oxo-1-azepanyl]butanamide]", "values": [{"measurement": "AUD CC (ED50 for inhibition of Clonic Convulsions in the Audiogenic seizure test)", "setting": "[1]; [5]", "result": 0.00013, "unit": "mol/kg"}, {"measurement": "Ki", "setting": "[2]; [6]", "result": "0.0316 to 0.316", "unit": "µM"}]}, {"smiles": "CCC(C(N)=O)N1CCC(CI)CCC1=O", "note": "(single isomer, unassigned) [Compound 19, 2-[5-(iodomethyl)-2-oxo-1-azepanyl]butanamide]", "values": [{"measurement": "AUD CC (ED50 for inhibition of Clonic Convulsions in the Audiogenic seizure test)", "setting": "[1]; [5]", "result": "Inactive"}, {"measurement": "Ki", "setting": "[2]; [6]", "result": "> 3.16", "unit": "µM"}]}, {"smiles": "CCC(C(N)=O)N1CCC(CI)CCC1=O", "note": "(single isomer, unassigned) [Compound 17, 2-[5-(iodomethyl)-2-oxo-1-azepanyl]butanamide]", "values": [{"measurement": "Ki", "setting": "[2]; [6]", "result": "> 3.16", "unit": "µM"}]}, {"smiles": "CCC(C(N)=O)N1CC(c2ccccc2)CCC1=O", "note": "(stereo not shown) [Compound 10, 2-(2-oxo-5-phenyl-1-piperidinyl)butanamide]", "values": [{"measurement": "AUD CC (ED50 for inhibition of Clonic Convulsions in the Audiogenic seizure test)", "setting": "[1]; ip", "result": "Inactive"}]}, {"smiles": "CC[C@@H](C(N)=O)N1CCCC1=O", "note": "[levetiracetam, (S)-(−)-α-ethyl-2-oxo-1-pyrrolidineacetamide, reference compound]", "values": [{"measurement": "ED50", "setting": "[1]; reference compound, clonic convulsions, audiogenic seizure test, read-out: ED50 CC", "result": 180, "unit": "µmol/kg"}, {"measurement": "Ki", "setting": "[2]; reference", "result": 0.794, "unit": "µM"}]}, {"smiles": "CC[C@@H](C(N)=O)N1CC(CN=[N+]=[N-])CCC1=O", "note": "(stereo partly drawn) [Compound 7, (2S)-2-[5-(azidomethyl)-2-oxo-1-piperidinyl]butanamide]", "values": [{"measurement": "AUD CC (ED50 for inhibition of Clonic Convulsions in the Audiogenic seizure test)", "setting": "[1]; ip", "result": 0.00012, "unit": "mol/kg"}, {"measurement": "Ki", "setting": "[2]; [4]", "result": "0.0316 to 0.316", "unit": "µM"}]}, {"smiles": "CCC(C(N)=O)N1CC(c2ccccc2)CCC1=O", "note": "(stereo not shown) [Compound 11, 2-(2-oxo-5-phenyl-1-piperidinyl)butanamide]", "values": [{"measurement": "AUD CC (ED50 for inhibition of Clonic Convulsions in the Audiogenic seizure test)", "setting": "[1]; ip", "result": "7e-05", "unit": "mol/kg"}, {"measurement": "Ki", "setting": "[2]; [4]", "result": "0.0316 to 0.316", "unit": "µM"}]}, {"smiles": "CC[C@@H](C(N)=O)N1CC(CN=[N+]=[N-])CCC1=O", "note": "(stereo partly drawn) [Compound 8, (2S)-2-[5-(azidomethyl)-2-oxo-1-piperidinyl]butanamide]", "values": [{"measurement": "AUD CC (ED50 for inhibition of Clonic Convulsions in the Audiogenic seizure test)", "setting": "[1]; ip", "result": 0.00028, "unit": "mol/kg"}, {"measurement": "Ki", "setting": "[2]; [4]", "result": "0.316 to 3.16", "unit": "µM"}]}, {"smiles": "CC[C@@H](C(N)=O)N1CC(CI)CCC1=O", "note": "(stereo partly drawn) [Compound 5, (2S)-2-[5-(iodomethyl)-2-oxo-1-piperidinyl]butanamide]", "values": [{"measurement": "ED50", "setting": "[1]; ip, read-out: AUD CC (ED50 for inhibition of Clonic Convulsions in the Audiogenic seizure test), 6-ring compounds, intraperitoneally 60 minutes before induction, inactive = inactive at 1.0E−03", "result": 160, "unit": "µmol/kg"}, {"measurement": "Ki", "setting": "[2]; [4]", "result": "0.316 to 3.16", "unit": "µM"}]}, {"smiles": "CC[C@H](C(N)=O)N1CCC(CI)CC1=O", "note": "(stereo partly drawn) [Compound 16, (2R)-2-[4-(iodomethyl)-2-oxo-1-piperidinyl]butanamide]", "values": [{"measurement": "AUD CC (ED50 for inhibition of Clonic Convulsions in the Audiogenic seizure test)", "setting": "[1]; [3]", "result": "Inactive"}]}, {"smiles": "CCC(C(N)=O)N1CC(c2ccccc2)CCC1=O", "note": "(stereo not shown) [Compound 9, 2-(2-oxo-5-phenyl-1-piperidinyl)butanamide]", "values": [{"measurement": "AUD CC (ED50 for inhibition of Clonic Convulsions in the Audiogenic seizure test)", "setting": "[1]; ip", "result": 0.00028, "unit": "mol/kg"}]}, {"smiles": "CC[C@@H](C(N)=O)N1CCC(CI)CC1=O", "note": "(stereo partly drawn) [Compound 13, (2S)-2-[4-(iodomethyl)-2-oxo-1-piperidinyl]butanamide]", "values": [{"measurement": "AUD CC (ED50 for inhibition of Clonic Convulsions in the Audiogenic seizure test)", "setting": "[1]; [3]", "result": 0.00011, "unit": "mol/kg"}, {"measurement": "Ki", "setting": "[2]; [4]", "result": "0.0316 to 0.316", "unit": "µM"}]}]}
